Laboratory results as given in patent US20050197364A1, “Amide compounds as ion channel ligands and uses thereof” (priority 2003, published 2005).

Tests used:
2C9 = 2C9 (Homo sapiens, UniProt P11712); assay: Cytochrome p450 inhibition assessment, 2C9; format: in vitro ADME; details: concentration range tested, upper 100 μM
Method: (§1) The ability of test compounds to inhibit five major human cytochrome p450 isozymes was evaluated. Cytochrome p450 inhibition assays were performed on 96-well microtiter assay plates according to the protocols described in Gentest P450 inhibition instruction manuals. The assays were performed in duplicate at 8 concentrations with the upper concentration of 100 μM followed by a 1:3 serial dilution. Reactions were initiated by the addition of 100 μL of enzyme/substrate mix to 100 μL of cofactor/serial dilution mix, and terminated by addition of 75 μL of a 4:1 acentonitrile: 0.5 M Tris base solution or by 2N NaOH for CYP3A4/DBF. Fluorescence was measured using a fluorescence plate reader (FLUOstar model 403, BMG Lab Technologies, Durham, N.C.). For reactions with inhibition greater than 50%, IC50 values were determined by fitting the data to the Hill equation using software GraphPad Prism (Version 4.02, GraphPad Software, San Diego, Calif.).

VR1 receptor [1] = target: T1, VR1 receptor (Rattus norvegicus, UniProt O35433); assay: Whole-cell patch clamp electrophysiology, capsaicin induced current in DRG neurons; format: cell-based
T1 construct: Dorsal root ganglion (DRG) neurons were recovered from either neonatal or adult rats; endogenous in cells; host or cells: primary rat dorsal root ganglion neurons
T1 sequence (O35433 whole entry): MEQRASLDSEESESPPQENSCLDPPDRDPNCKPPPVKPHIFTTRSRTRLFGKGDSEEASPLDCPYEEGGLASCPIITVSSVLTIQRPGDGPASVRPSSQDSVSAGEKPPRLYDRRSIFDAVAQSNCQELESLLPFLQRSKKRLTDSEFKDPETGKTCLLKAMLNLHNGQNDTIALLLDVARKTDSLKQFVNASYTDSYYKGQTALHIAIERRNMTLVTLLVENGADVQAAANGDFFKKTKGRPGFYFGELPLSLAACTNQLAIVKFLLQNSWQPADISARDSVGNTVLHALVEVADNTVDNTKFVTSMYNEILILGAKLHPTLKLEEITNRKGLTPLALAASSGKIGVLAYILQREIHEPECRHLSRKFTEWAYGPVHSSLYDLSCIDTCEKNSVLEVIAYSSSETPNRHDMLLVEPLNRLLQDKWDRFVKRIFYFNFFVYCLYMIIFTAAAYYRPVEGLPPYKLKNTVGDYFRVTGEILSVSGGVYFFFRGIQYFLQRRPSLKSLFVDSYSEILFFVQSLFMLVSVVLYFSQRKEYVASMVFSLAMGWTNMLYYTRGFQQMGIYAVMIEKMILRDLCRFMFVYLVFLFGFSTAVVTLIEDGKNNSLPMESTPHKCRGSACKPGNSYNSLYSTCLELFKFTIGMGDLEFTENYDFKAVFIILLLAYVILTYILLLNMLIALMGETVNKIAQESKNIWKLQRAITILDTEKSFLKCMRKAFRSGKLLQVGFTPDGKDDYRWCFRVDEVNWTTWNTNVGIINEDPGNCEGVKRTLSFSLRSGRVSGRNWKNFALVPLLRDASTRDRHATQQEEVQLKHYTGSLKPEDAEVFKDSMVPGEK
Method: Dorsal root ganglion (DRG) neurons were recovered from either neonatal or adult rats and plated onto poly-D-lysine coated glass coverslips. The plated neurons were transferred into a chamber to allow drug solutions to be added to the cells using a computer-controlled solenoid-valve based perfusion system. The cells were imaged using standard DIC optics. Cells were patched using finely-pulled glass electrodes. Voltage-clamp electrophysiology experiments were carried out using an Axon Instruments Multiclamp amplified controlled by pCLAMP8 software.
The cells were placed into a whole-cell voltage clamp and help at a voltage of −80 mV while monitoring the membrane current in gap-free recording mode. 500 nM capsaicin was added for 30 seconds as a control. Test compounds at various concentrations at ranging from (10-1000 nM) were added to the cells for 1 minute prior to a 30 second capsaicin application. Differences between control experiments and drug positive capsaicin experiments were used to determine the efficacy of each test compound. All compounds that inhibited capsaicin induced current greater than 50% were considered positives.

[2] = Aqueous equilibrium solubility; format: physicochemical; details: room temperature
Method: Equilibrium solubility was measured in a pH 2.0 isotonic solution of NaCl/HCl and a pH 7.4 aqueous buffer. The pH 2.0 solution was prepared by adjusting the saline solution to a pH of 2.0 using HCl. The pH 7.4 buffer was prepared by adjusting the pH of a 0.07 M solution of NaH2PO4 to pH 7.4 with 10 N NaOH. […] At least 1 mg of powder was combined with 1 ml of buffer to make ≧1 mg/ml mixture. This sample was shaken for ≧2 hours and left to stand overnight at room temperature. The samples were then filtered through a 0.45-μm Nylon syringe filter that was first saturated with the sample. The filtrate was sampled twice, consecutively. All samples were assayed by LC/MS using electrospray ionization. The typical range of the assay is greater than 1 mg/mL to less than 0.0002 mg/mL, depending on analytical sensitivity.

[3] = Partition coefficient Log(D), 1-octanol / pH 7.4 buffer; format: physicochemical; details: pH 7.4, 1-octanol/buffer
Method: The partition coefficient, Log(D), between water-saturated 1octanol and pH 7.4 buffer was determined for Compound 18. The pH 7.4 buffer was prepared by adjusting the pH of a 0.07 M solution of NaH2PO4 to pH 7.4 with 10 N NaOH. 15 μL of a 10 mM stock solution of test article were pipetted in duplicate, into test tubes containing 750 μL each of 1-octanol and pH 7.4 buffer. Then 3 μL of 50 mM testosterone was also added to each tube. Then the tubes were rotated for about one hour using a benchtop rotator. Following the rotation, the tubes sat on the bench top for about 1 hour to allow the layers to separate.
Thereafter, 400 μL of the octanol (top) layer was removed and placed into a test tube. Next 400 μL of the aqueous (bottom) layer was removed and placed into a test tube. […]
A standard curve of test article and testosterone was prepared using 50% methanol at the following concentrations: 2, 0.6, 0.2, 0.06, 0.02, 0.006, and 0.002 μM. The samples were analyzed by LC/MS monitoring both test article and testosterone. Log (D) was calculated for each duplicate sample by taking the calculated concentration of the least diluted sample for each phase that fell within the standard curve using the following equation: Log(D)=Log10(Calc. Conc. in Organic Phase/Calc. Conc. in Aqueous Phase).

[4] = test system: pawlick response induced by capsaicin; assay: Paw lick assay (capsaicin challenge); format: in vivo; details: 30 mg/kg, at least 30 minutes prior to testing; FIG. 5
Method: This assay was performed to test the ability of Compound 18 to inhibit the response to capsaicin challenge.
Animals were acclimatized at least 2 days prior to testing by placing them in a behavioral chamber for one hour. On the day of testing, animals were trained for 30-60 minutes prior to dosing. Animals were dosed with 30 mg/kg of Compound 18 at least 30 minutes prior to testing and then placed in behavioral chambers for acclimatization. Animals were then placed into a falcon tube restrainer and injected with a 0.16 mg/ml capsaicin solution (or vehicle) into the plantar surface of their paw. Animals were then returned to the behavior chamber and monitored for paw licking behavior (including paw and leg licking behavior) over the next 5 minute interval.

VR1 receptor [5] = assay: High throughput calcium imaging assay (Fura2, Flex Station) of VR1 antagonists, pH 5.1 stimulus; format: cell-based; details: 1 uM compound; inhibition of calcium ion influx induced by capsaicin stimulation
thermal hyperalgesia = assay: Thermal hyperalgesia (carrageenan, latency of paw withdrawal); format: in vivo, rat; details: rats, 30 mg/kg, two hours after dosing, FIG. 6
Method: Sprague-Dawley male rats obtained from Charles River, San Diego, Calif. were purchased at 150-175 g, and held for at least one week before testing. Pain was induced by injecting 100 μl of 2% carrageenan in 0.9% saline sub-Q into the right ventral hindpaw while the animals were under isofluorane anesthesia. Animals were then dosed one hour after with different concentrations of Compound 18 (3, 10, and 30 mg/kg). Two hours later, after acclimatizing in testing chambers for 20-30 minutes, animals were tested on both hindpaws for latency of paw withdrawal using a thermal testing apparatus. 2-3 trials were conducted with 10 minutes between trials. […] The figure depicts the time in seconds until animals withdraw from thermal stimulation at baseline and two hours after administration of delivery vehicle, control compound, and three concentrations of Compound 18.

CYP3A4 = CYP3A4 (Homo sapiens, UniProt P08684); assay: Cytochrome p450 inhibition assessment, CYP3A4; format: in vitro ADME; details: concentration range tested, upper 100 μM
Sequence of CYP3A4 (P08684 whole entry): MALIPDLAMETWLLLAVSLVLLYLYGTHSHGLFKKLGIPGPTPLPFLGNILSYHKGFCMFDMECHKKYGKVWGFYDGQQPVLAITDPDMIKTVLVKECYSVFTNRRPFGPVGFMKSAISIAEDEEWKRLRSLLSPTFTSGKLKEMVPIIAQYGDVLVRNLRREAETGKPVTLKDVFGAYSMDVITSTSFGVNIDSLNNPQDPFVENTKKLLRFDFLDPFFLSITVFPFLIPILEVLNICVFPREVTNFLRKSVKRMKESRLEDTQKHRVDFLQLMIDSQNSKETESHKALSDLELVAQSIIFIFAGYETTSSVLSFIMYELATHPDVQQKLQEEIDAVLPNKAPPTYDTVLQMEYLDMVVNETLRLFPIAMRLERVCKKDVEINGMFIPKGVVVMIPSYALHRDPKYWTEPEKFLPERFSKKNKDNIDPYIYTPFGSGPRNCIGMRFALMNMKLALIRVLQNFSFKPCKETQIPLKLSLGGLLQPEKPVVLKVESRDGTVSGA
Method: as §1

Sequence of 2C9 (P11712 whole entry): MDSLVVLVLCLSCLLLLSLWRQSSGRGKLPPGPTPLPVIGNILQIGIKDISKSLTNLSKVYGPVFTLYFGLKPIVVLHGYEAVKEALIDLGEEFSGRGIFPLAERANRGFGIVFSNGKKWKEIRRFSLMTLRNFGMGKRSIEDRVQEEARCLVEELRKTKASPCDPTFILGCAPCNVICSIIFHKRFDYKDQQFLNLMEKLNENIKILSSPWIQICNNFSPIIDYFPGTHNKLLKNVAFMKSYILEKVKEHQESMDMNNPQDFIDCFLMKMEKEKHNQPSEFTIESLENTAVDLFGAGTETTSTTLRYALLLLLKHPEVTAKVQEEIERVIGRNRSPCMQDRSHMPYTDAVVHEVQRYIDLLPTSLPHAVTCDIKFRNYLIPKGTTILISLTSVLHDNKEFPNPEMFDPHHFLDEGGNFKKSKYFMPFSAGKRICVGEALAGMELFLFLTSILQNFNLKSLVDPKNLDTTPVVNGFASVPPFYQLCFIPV

In the case of `O=C(Nc1ccc(C(F)(F)F)cc1)c1ccc(-c2ncccc2Cl)cc1` [Compound 18, 4-(3-Chloropyridin-2-yl)-N-(4-trifluoromethyl-phenyl)benzamide], the “inhibition of 2C9 activity” value (2C9) is reported as “did not significantly inhibit”, the “dose response of inhibiting a capsaicin induced calcium ion influx (FIG. 3)” value (VR1 receptor [1]; 50 nM, 100 nM and 250 nM) is reported as “increasing effectiveness” and the inhibition at 0.1 µM (VR1 receptor [1]; DRG neuron, 100 nM compound, treatment time 20 seconds, 500 nM capsaicin, rat DRG neurons, -80 mV) is reported as under 75%. The solubility thermodynamic ([2]; pH 2.0 isotonic NaCl/HCl solution, simulated gastric fluid, thermodynamic from solid, pH 2.0 isotonic NaCl/HCl) was under 0.2 µg/mL, the equilibrium solubility ([2]; pH 7.4 aqueous buffer) was “low solubility” and the “Log (D)” value [3] was “less than 4.7”. For the same compound, the “pawlick response induced by treatment with capsaicin” value [4] was “significantly inhibited”, the “% Inhibition @ 1 uM” value (VR1 receptor [5]) was “+ + + + (compound exhibited 75% or greater inhibition of calcium ion influx induced by capsaicin stimulation)” and the “latency of paw withdrawal (reversal of thermal hyperalgesia)” value (thermal hyperalgesia) was “significantly increased”. For the same compound, the “inhibition of CYP3A4 activity” value (CYP3A4) was “did not significantly inhibit”.
